PMC9694711, “Synthesis of Paclitaxel Derivatives for Remote Loading into Liposomes and Improved Therapeutic Effect” (Molecules, 2022)

Legend:
[1] = tested on: breast cancer cell line 4T1; test: MTT assay, cytotoxicity on 4T1; format: cell-based, mouse; settings: for GI50: Mus musculus, MTT, 72 h, mean of two independent determinations; for inhibition % at fixed concentration, 4T1 (printed in GI50 column): @100 nM
Method: (§1) MTT assay was applied to verify the rationality of the molecular combination strategy. The cytotoxicity of the compounds was evaluated on lung cancer cell line A549, colon cancer cell line HCT-116, breast cancer cell line 4T1 and normal hepatocyte cell line LO2. Paclitaxel was used as a positive drug. […] The therapeutic index (TI) for LO2/HCT-116, LO2/A549 and LO2/4T1 of active compounds 4a, 4d, 13a, 17a, 17c and paclitaxel are shown in Table 2.
(§2) Cells were inoculated in 96-well plates (cell density 2 × 10^4 cells/well) followed by incubation for 24 h at 37 °C. Paclitaxel and target compounds were added to the corresponding well. Subsequently, the cultures were incubated for 72 h. After the MTT solution (50 µL, 2 mg/mL) was added to cultures, the plates were incubated for an additional 4 h. Purple colored formazan crystals were dissolved in 200 µL DMSO, and the absorbance was recorded at 570 nm using Synergy HT, Bio-Tek (Winooski, VT, USA).

[2] = tested on: colon cancer cell line HCT-116; test: MTT assay, cytotoxicity on HCT-116; format: cell-based, human; settings: for GI50: Homo sapiens, HCT-116, MTT, 72 h, mean of two independent determinations
Method: as §1, §2

[3] = tested on: lung cancer cell line A549; test: MTT assay, cytotoxicity on A549; format: cell-based, human; settings: Homo sapiens, A549; MTT, 72 h; mean of two independent determinations
Method: as §1, §2

[4] = tested on: normal hepatocyte cell line LO2; test: MTT assay, cytotoxicity on normal cell LO2; format: cell-based; settings: for inhibition % at fixed concentration, LO2 (printed in GI50 column): @2 μM; for GI50: Hepatocyte, MTT, 72 h, mean of two independent determinations
Method: as §1, §2

Row | SMILES | GI50 [1] [nM] | GI50 [2] [nM] | GI50 [3] [nM] | also measured
1 | CC(=O)OC12COC1CC(O)C1(C)C(=O)C(O)C3=C(C)C(OC(=O)C(OC(=O)CCC(=O)OCc4ccc(B(O)O)cc4)C(NC(=O)OC(C)(C)C)c4ccccc4)CC(O)(C(OC(=O)c4ccccc4)C21)C3(C)C (stereo not drawn) [Compound 4b, 2’-O-[4-((4-boronobenzyl)oxy)-4-oxobutyryl]docetaxel] | 54.7 |  |  | 
2 | CC(=O)OC1C(=O)C2(C)C(O)CC3OCC3(OC(C)=O)C2C(OC(=O)c2ccccc2)C2(O)CC(OC(=O)C(OC(=O)CCCC(=O)OCc3ccc(B(O)O)cc3)C(NC(=O)c3ccccc3)c3ccccc3)C(C)=C1C2(C)C (stereo not drawn) [Compound 4c, 2’-O-[5-((4-boronobenzyl)oxy)-5-oxopentanoyl]taxol] | > 100 |  |  | 
3 | CC(=O)OC1C(=O)C2(C)C(O)CC3OCC3(OC(C)=O)C2C(OC(=O)c2ccccc2)C2(O)CC(OC(=O)C(OC(=O)CCSSCCC(=O)OCc3ccc(B(O)O)cc3)C(NC(=O)c3ccccc3)c3ccccc3)C(C)=C1C2(C)C (stereo not drawn) [Compound 4e, 2’-O-[3-((3-((4-boronobenzyl)oxy)-3-oxopropyl)disulfaneyl)propionyl]taxol] | > 100 |  |  | 
4 | CC(=O)OC1C(=O)C2(C)C(O)CC3OCC3(OC(C)=O)C2C(OC(=O)c2ccccc2)C2(O)CC(OC(=O)C(OC(=O)c3ccc(B(O)O)cc3)C(NC(=O)c3ccccc3)c3ccccc3)C(C)=C1C2(C)C (stereo not drawn) [Compound 6a, 2’-O-[4-boronobenzoyl]taxol] | > 100 | > 100 | > 100 | 
5 | CC(=O)OC12COC1CC(O)C1(C)C(=O)C(O)C3=C(C)C(OC(=O)C(OC(=O)c4ccc(B(O)O)cc4)C(NC(=O)OC(C)(C)C)c4ccccc4)CC(O)(C(OC(=O)c4ccccc4)C21)C3(C)C (stereo not drawn) [Compound 6b, 2’-O-[4-boronobenzoyl]docetaxel] | > 100 |  |  | 
6 | CC(=O)OC1C(=O)C2(C)C(O)CC3OCC3(OC(C)=O)C2C(OC(=O)c2ccccc2)C2(O)CC(OC(=O)C(OC(=O)OCCCCCB(O)O)C(NC(=O)c3ccccc3)c3ccccc3)C(C)=C1C2(C)C (stereo not drawn) [Compound 10a, 2’-O-[5-boronopentyl carbonate]taxol] | > 100 | > 100 | > 100 | inhibition % at fixed concentration, LO2 (printed in GI50 column) [4]: 32.81%@2 μM
7 | CC(=O)OC1C(=O)C2(C)C(O)CC3OCC3(OC(C)=O)C2C(OC(=O)c2ccccc2)C2(O)CC(OC(=O)C(OC(=O)OCCCCCCB(O)O)C(NC(=O)c3ccccc3)c3ccccc3)C(C)=C1C2(C)C (stereo not drawn) [Compound 10b, 2’-O-[6-boronohexyl carbonate]taxol] | > 100 | > 100 |  | GI50 [4]: 745 nM
8 | CC(=O)OC12COC1CC(O)C1(C)C(=O)C(O)C3=C(C)C(OC(=O)C(OC(=O)OCCCCCCB(O)O)C(NC(=O)OC(C)(C)C)c4ccccc4)CC(O)(C(OC(=O)c4ccccc4)C21)C3(C)C (stereo not drawn) [Compound 10c, 2’-O-[6-boronohexyl carbonate] docetaxel] |  |  |  | inhibition % at fixed concentration, HCT-116 (printed in GI50 column) ([2]; @100 nM): 55.66%@100 nM; GI50 [4]: 273 nM; inhibition % at fixed concentration, 4T1 (printed in GI50 column) [1]: 35.97%@100 nM
9 | CC(=O)OC12COC1CC(O)C1(C)C(=O)C(O)C3=C(C)C(OC(=O)C(OC(=O)OCc4ccc(B(O)O)cc4)C(NC(=O)OC(C)(C)C)c4ccccc4)CC(O)(C(OC(=O)c4ccccc4)C21)C3(C)C (stereo not drawn) [Compound 13b, 2’-O-[4-boronobenzyl carbonate] docetaxel] | 33.1 |  |  | 
10 | CC(=O)OC1C(=O)C2(C)C(O)CC3OCC3(OC(C)=O)C2C(OC(=O)c2ccccc2)C2(O)CC(OC(=O)C(OC(=O)CCCB(O)O)C(NC(=O)c3ccccc3)c3ccccc3)C(C)=C1C2(C)C (stereo not drawn) [Compound 17b, 2’-O-[4-boronobutanoyl]taxol] |  | 38.3 | 69.2 | inhibition % at fixed concentration, LO2 (printed in GI50 column) [4]: 38.06%@2 μM; inhibition % at fixed concentration, 4T1 (printed in GI50 column) [1]: 17.89%@100 nM
11 | CC(=O)OC1C(=O)C2(C)C(O)CC3OCC3(OC(C)=O)C2C(OC(=O)c2ccccc2)C2(O)CC(OC(=O)C(OC(=O)CCCCCB(O)O)C(NC(=O)c3ccccc3)c3ccccc3)C(C)=C1C2(C)C (stereo not drawn) [Compound 17d, 2’-O-[6-boronohexanoyl]taxol] | > 100 | > 100 | > 100 | 
12 | CC(=O)OC1C(=O)C2(C)C(O)CC3OCC3(OC(C)=O)C2C(OC(=O)c2ccccc2)C2(O)CC(OC(=O)C(OC(=O)CCCCCCB(O)O)C(NC(=O)c3ccccc3)c3ccccc3)C(C)=C1C2(C)C (stereo not drawn) [Compound 17e, 2’-O-[7-boronoheptanoyl]taxol] | > 100 | > 100 | > 100 | 
13 | CC(=O)OC12COC1CC(O)C1(C)C(=O)C(O)C3=C(C)C(OC(=O)C(OC(=O)CCCB(O)O)C(NC(=O)OC(C)(C)C)c4ccccc4)CC(O)(C(OC(=O)c4ccccc4)C21)C3(C)C (stereo not drawn) [Compound 17f, 2’-O-[4-boronobutanoyl]docetaxel] | 14.5 |  |  | 
14 | CC(=O)OC12COC1CC(O)C1(C)C(=O)C(O)C3=C(C)C(OC(=O)C(OC(=O)CCCCCB(O)O)C(NC(=O)OC(C)(C)C)c4ccccc4)CC(O)(C(OC(=O)c4ccccc4)C21)C3(C)C (stereo not drawn) [Compound 17g, 2’-O-[6-boronohexanoyl]docetaxel] |  |  |  | inhibition % at fixed concentration, 4T1 (printed in GI50 column) [1]: 35.83%@100 nM
